{"source": "paper PMC5077133", "about": "“Towards Development of Small Molecule Lipid II Inhibitors as Novel Antibiotics” (PLoS ONE, 2016)", "key": {"[1]": {"tested_on": "Enterococcus faecalis EF1509", "test": "Murine peritoneal sepsis model", "format": "in vivo, C57BL/6J mice", "conditions": "6jc48-1 100 mg/kg, ampicillin 300 mg/kg", "text": "Care of the mice met or exceeded the standards set forth by the National Institute of Health Guide for the care and use of laboratory animals and the AVMA panel on Euthanasia. All procedures in this study have been approved by the Institutional Animal Care and Use Committee (IACUC) at the University of Maryland Baltimore School of Medicine (Protocol number 02122005). Adult C57BL/6J mice (~18 grams, 8–10 weeks old) were used for all experiments. Mice were obtained from the Jackson Laboratory (Bar Harbor, Maine, USA) and housed in the IHV SPC animal core facility. Mice were fed standard chow (Harlan Laboratories) and water ad libitum. […] Infected animals (n = 5) were subsequently treated by intraperitoneal injection 30 min post-infection with 100 mg/kg of compound in 300 μL sterile saline solution, 5% Tween 80, 10% DMSO (V/V), ampicillin (300mg/kg), or vehicle (sterile saline solution, 5% Tween 80, 10% DMSO (V/V)) as positive and negative controls, respectively. Animals were closely observed during a period of 24 h and mice that show signs of severe sepsis were humanely euthanized. Mice were anesthetized by intraperitoneal injection of ketamine (80-100mg/kg) and xylazine (10–15 mg/kg). Once sedated, blood was collected by cardiac puncture. Immediately after blood collection the mice were euthanized by cervical dislocation. Spleens were harvested aseptically, weighed and homogenized in 500 μl of sterile saline solution using an IKA T10 basic disperser (IKA, Wilmington NC). Spleen homogenates were serially diluted and plated onto BHI agar plates. Bacterial counts were determined following 24 h incubation at 37°C and expressed as CFU per gram for spleen.\nWe established a murine model for sepsis to evaluate the efficacy of 6jc48-1 as an antibiotic agent in vivo. […] Based on the data obtained in the pharmacokinetic analysis, mice (n = 5) were inoculated intraperitoneally with E. faecalis EF1509 (~5 x 10^8 CFU/ animal) and treated after 30 min with compound 6jc48-1 (100 mg/kg IP), ampicillin (300 mg/kg IP) or vehicle. Animals were monitored for survival and after 24 h spleen samples were collected and analyzed for the presence of bacteria. Bacterial counts were determined by plating serial dilutions on BHI agar plates and compared to control treatment with ampicillin as measures of efficacy (Fig 5)."}, "[2]": {"test": "Liver microsome stability", "format": "in vitro ADME", "conditions": "human, human liver microsomes, pH 7.4", "procedure": "The in vitro microsome stability assay was performed using human liver microsomes and a Biomek FXP liquid handling workstation to deliver reagents to a 96 deep well plate on a shaking peltier with temperature controls. Human liver microsomes were purchased from Corning®. The test compound was incubated in an aqueous reaction mixture (200 ul total volume) consisting of human liver microsomes (150 mixed donor pool) and NADPH Regenerating System Solutions A and B (Corning®) in the presence of 100 mM potassium phosphate buffer (pH 7.4). The NADPH solution A comprises nicotinamide adenine dinucleotide phosphate (NADP+) and glucose 6-phosphate and solution B contains glucose-6-phosphate dehydrogenase. Solutions A and B were combined prior to adding to the reaction plate to generate a supply of NADPH. The NADPH was added last to simultaneously initiate the reactions. The final concentration of the test compound was 10 uM and the microsomal protein concentration was 0.5 mg/ml. After incubation at 37°C, the reaction was terminated at 0, 5, 10, 20, 30, 40, 50 and 60 minutes, respectively, by the addition of 600 uL of acetonitrile. Three replicates were run for each time point. The quenched reaction plate was centrifuged at 4500 rpm for 10 minutes. The supernatant was diluted 1:2 in 30% Methanol in water for LC/MS/MS analyses to monitor substrate depletion. Water was substituted for NADPH for the zero time-point samples. A control plate, without NADPH cofactor, was completed on the same day, using the same conditions.\nThe half-life (t1/2) was obtained using the equation below: t1/2=−0.693/slope\nWhere slope is the slope of the line formed by ln(% remaining test compound) vs. time. The in vitro intrinsic clearance (CLint) value was calculated using equation: CLint=(0.693/t1/2)(incubation volume(ul)/total microsomal protein(mg))"}, "[3]": {"tested_on": "E. faecalis (n=5) clinical isolates", "test": "Activity against Enterococcus spp. (MIC)", "format": "cell-based", "conditions": "clinical isolates sensitive to linezolid and daptomycin", "procedure": "Determination of the Minimal Inhibitory Concentrations (MIC) by dilution was carried out by broth dilution according to CLSI standards."}}}
{"smiles": "CC1(C)S[C@@H]2[C@H](NC(=O)[C@H](N)c3ccccc3)C(=O)N2[C@H]1C(=O)O", "note": "[ampicillin, reference compound]", "values": [{"measurement": "Bacterial counts in spleen", "setting": "[1]; IP treatment 30 min post-infection, spleen collected after 24 h", "result": "significant bacterial clearance"}, {"measurement": "Survival of infected animals", "setting": "[1]; n = 5, IP treatment 30 min post-infection, length of the experiment (24 h)", "result": "all animals"}]}
{"smiles": "COc1ccc2c(c1)[C@]13CCCC[C@@H]1[C@H](C2)N(C)CC3", "note": "[dextromethorphan, reference compound]", "values": [{"measurement": "microsomal CLint at 10 uM", "setting": "[2]; read-out: Liver microsome intrinsic clearance (positive control)", "result": 31, "unit": "µL/min/mg"}, {"measurement": "half-life at 10 uM", "setting": "[2]; read-out: Liver microsome t1/2 (positive control)", "result": 40, "unit": "min"}]}
{"smiles": "CN[C@H](CC(C)C)C(=O)N[C@H]1C(=O)N[C@@H](CC(N)=O)C(=O)N[C@H]2C(=O)N[C@H]3C(=O)N[C@H](C(=O)N[C@H](C(=O)O)c4cc(O)cc(O)c4-c4cc3ccc4O)[C@H](O)c3ccc(c(Cl)c3)Oc3cc2cc(c3O[C@@H]2O[C@H](CO)[C@@H](O)[C@H](O)[C@H]2O[C@H]2C[C@](C)(N)[C@H](O)[C@H](C)O2)Oc2ccc(cc2Cl)[C@H]1O", "note": "[Vancomycin]", "values": [{"measurement": "Activity (MIC) E. faecalis (n=5) clinical isolates", "setting": "[3]", "result": ">32"}]}
